In test [1] the target is Recombinant human Cbl-b (aa 36-427) (Homo sapiens (Human), UniProt Q13191). The test can be described thus: Cbl-b Biochemical Assay (TR-FRET). The following applies: read-out: TR-FRET hCbl-b IC50. In outline:
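Two-step TR-FRET: 6 nM biotinylated Cbl-b preincubated 30-60 min with compound, then 60 min at RT with 1-2.5 nM Src-Zap70 and 0.5 mM ATP in HEPES pH 7.0 buffer, 1% DMSO. Stopped with 5 mM EDTA plus 100 nM UBE2D2-Ub-FL-BODIPY and 1 nM streptavidin-Tb, 60 min; 520 nm signal; IC50 from 4-parameter fit.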
For orientation: Time-resolved FRET reads energy transfer from a long-lived donor to a nearby acceptor.

Test [2] concerns the target Recombinant human c-Cbl (aa 47-435) (Homo sapiens (Human), UniProt P22681). The test can be described thus: c-Cbl Biochemical Assay (TR-FRET). In outline: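 Biotinylated c-Cbl (6 nM) preincubated 30 min RT with compound, then reacted 60-90 min with Src-Zap70 (2.5-10 nM) and 0.5 mM ATP, pH 7.0 HEPES buffer. Stopped with EDTA; 100 nM Bodipy-ubiquitinated UBE2D2 binding read by TR-FRET after 60 min; IC50 from 4-parameter fit.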

Molecules are shown by their SMILES.

Recombinant human Cbl-b (aa 36-427), sequence (Q13191 36-427): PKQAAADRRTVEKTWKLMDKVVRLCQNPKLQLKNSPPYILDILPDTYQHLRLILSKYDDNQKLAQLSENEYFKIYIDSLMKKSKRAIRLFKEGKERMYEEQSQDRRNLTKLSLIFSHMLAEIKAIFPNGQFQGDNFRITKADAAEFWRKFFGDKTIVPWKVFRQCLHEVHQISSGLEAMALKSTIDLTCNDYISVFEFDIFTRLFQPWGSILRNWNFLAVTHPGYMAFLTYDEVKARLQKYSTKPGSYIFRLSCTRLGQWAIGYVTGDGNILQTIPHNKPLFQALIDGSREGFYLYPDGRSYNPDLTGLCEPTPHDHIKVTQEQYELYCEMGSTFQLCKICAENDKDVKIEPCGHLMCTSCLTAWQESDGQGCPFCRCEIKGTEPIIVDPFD
Recombinant human c-Cbl (aa 47-435), sequence (P22681 47-435): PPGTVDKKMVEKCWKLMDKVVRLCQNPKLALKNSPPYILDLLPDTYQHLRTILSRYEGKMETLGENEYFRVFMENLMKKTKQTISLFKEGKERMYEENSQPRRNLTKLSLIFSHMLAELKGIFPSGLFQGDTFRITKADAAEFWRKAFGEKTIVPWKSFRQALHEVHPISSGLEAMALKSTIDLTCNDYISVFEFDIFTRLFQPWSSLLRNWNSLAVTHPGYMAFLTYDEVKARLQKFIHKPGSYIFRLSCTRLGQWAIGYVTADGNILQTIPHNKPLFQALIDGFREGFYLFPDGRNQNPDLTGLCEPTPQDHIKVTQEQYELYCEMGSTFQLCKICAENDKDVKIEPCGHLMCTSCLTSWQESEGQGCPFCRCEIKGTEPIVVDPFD

For `CC[C@@H](O)CNCc1ccc2c(c1)C(=O)N(c1cc(-c3ccc(C#N)cc3-c3nncn3C)cc(C3CC3)n1)C2` [AIP-2, 4-{2-Cyclopropyl-6-[6-({[(2R)-2-hydroxybutyl]amino}methyl)-1-oxo-3H-isoindol-2-yl]pyridin-4-yl}-3-(4-methyl-1,2,4-triazol-3-yl)benzonitrile], the IC50 in test [1] and in test [2] was not above 200 nM each time.

With `CN(Cc1ccc2c(c1)C(=O)N(c1cc(-c3ccc(C#N)cc3-c3nncn3C)cc(C3CC3)n1)C2)CC1CC1` [AIX-2, 4-[2-Cyclopropyl-6-(6-{[(cyclopropylmethyl)(methyl)amino]methyl}-1-oxo-3H-isoindol-2-yl)pyridin-4-yl]-3-(4-methyl-1,2,4-triazol-3-yl)benzonitrile], the IC50 in test [1] and in test [2] was not above 200 nM each time.

With `Cn1cnnc1-c1cc(C#N)ccc1-c1cc(C2CC2)nc(N2Cc3ccc(CNCC4(O)CCCC4)cc3C2=O)c1` [AIF-1, 4-{2-Cyclopropyl-6-[6-({[(1-hydroxycyclopentyl)methyl]amino}methyl)-1-oxo-3H-isoindol-2-yl]pyridin-4-yl}-3-(4-methyl-1,2,4-triazol-3-yl)benzonitrile], the IC50 in test [1] and in test [2] was not above 200 nM in each case.

As to `C[C@@H](NCc1ccc2c(c1)C(=O)N(c1cc(-c3ccc(C#N)cc3-c3nncn3C)cc(C3CC3)n1)C2)C1COC1` [ANJ-2, (R)-4-(2-Cyclopropyl-6-(6-(((1-(oxetan-3-yl)ethyl)amino)methyl)-1-oxoisoindolin-2-yl)pyridin-4-yl)-3-(4-methyl-4H-1,2,4-triazol-3-yl)benzonitrile], the IC50 in test [1] and in test [2] was not above 200 nM in each case.

Consider `Cn1cnnc1-c1cc(C#N)ccc1-c1cc(C2CC2)nc(N2Cc3ccc(C(C)(C)NCC4CC4)cc3C2=O)c1` [ALL-2, 4-[2-Cyclopropyl-6-(6-{2-[(cyclopropylmethyl)amino]propan-2-yl}-1-oxo-3H-isoindol-2-yl)pyridin-4-yl]-3-(4-methyl-1,2,4-triazol-3-yl)benzonitrile], for which the IC50 in test [1] and in test [2] was not above 200 nM each time.

In the case of `CCC1(NCc2cc3c(c(C(F)(F)F)c2)CN(c2cc(-c4ccc(C#N)cc4-c4nncn4C)cc(C4CC4)n2)C3=O)CC1` [AKU-2, 4-[2-Cyclopropyl-6-(6-{1[(1-ethylcyclopropyl)amino]methyl}-1-oxo-4-(trifluoromethyl)-3H-isoindol-2-yl)pyridin-4-yl]-3-(4-methyl-1,2,4-triazol-3-yl)benzonitrile], the half-maximal inhibitory concentration (IC50) in test [1] and in test [2] was not above 200 nM throughout.

Regarding `Cn1cnnc1-c1cc(C#N)ccc1-c1cc(C2CC2)nc(N2Cc3c(F)cc(CN[C@]4(C)COC[C@@H]4O)cc3C2=O)c1` (relative stereo) [AOH-1, rel-4-{2-Cyclopropyl-6-[4-fluoro-6-({[(3R,4R)-4-hydroxy-3-methyloxolan-3-yl]amino}methyl)-1-oxo-3H-isoindol-2-yl]pyridin-4-yl}-3-(4-methyl-1,2,4-triazol-3-yl)benzonitrile], the IC50 in test [1] and in test [2] was not above 200 nM each time.

In the case of `COCCNCc1ccc2c(c1)C(=O)N(c1cc(-c3ccc(C#N)cc3-c3nncn3C)cc(C3CC3)c1)C2` [AJQ-2, 3′-Cyclopropyl-5′-(6-(((2-methoxyethyl)amino)methyl)-1-oxoisoindolin-2-yl)-2-(4-methyl-4H-1,2,4-triazol-3-yl)-[1,1′-biphenyl]-4-carbonitrile], the half-maximal inhibitory concentration (IC50) in test [1] and in test [2] was not above 200 nM each time.

For the molecule `Cn1cnnc1-c1cc(C#N)ccc1-c1cc(C2CC2)nc(N2Cc3ccc(CN4CCOC5(COC5)C4)cc3C2=O)c1` [AOO-2, 4-[2-Cyclopropyl-6-(6-{2,5-dioxa-8-azaspiro[3.5]nonan-8-ylmethyl}-1-oxo-3H-isoindol-2-yl)pyridin-4-yl]-3-(4-methyl-1,2,4-triazol-3-yl)benzonitrile], the IC50 in test [1] and in test [2] was not above 200 nM in each case.

Regarding `Cn1cnnc1-c1cc(C#N)ccc1-c1cc(C2CC2)nc(N2Cc3ccc(CNCC4(F)COC4)cc3C2=O)c1` [ANL-2, 4-{2-Cyclopropyl-6-[6-({[(3-fluorooxetan-3-yl)methyl]amino}methyl)-1-oxo-3H-isoindol-2-yl]pyridin-4-yl}-3-(4-methyl-1,2,4-triazol-3-yl)benzonitrile], the IC50 in test [1] and in test [2] was not above 200 nM each time.

As for `CO[C@H](C)CNCc1ccc2c(c1)C(=O)N(c1cc(-c3ccc(C#N)cc3-c3nncn3C)cc(C3CC3)n1)C2` [AID-2, 4-{2-Cyclopropyl-6-[6-({[(2R)-2-methoxypropyl]amino}methyl)-1-oxo-3H-isoindol-2-yl]pyridin-4-yl}-3-(4-methyl-1,2,4-triazol-3-yl)benzonitrile], the IC50 in test [1] and in test [2] was not above 200 nM throughout.

In the case of `Cn1cnnc1-c1cc(C#N)ccc1-c1cc(C2CC2)nc(N2Cc3ccc(CNC4CCOC4)cc3C2=O)c1` (stereo in doubt) [ANP-2, 4-[2-Cyclopropyl-6-(1-oxo-6-{[(3S)-oxolan-3-ylamino]methyl}-3H-isoindol-2-yl)pyridin-4-yl]-3-(4-methyl-1,2,4-triazol-3-yl)benzonitrile], the IC50 in test [1] and in test [2] was not above 200 nM throughout.

For `CO[C@@H](C)CNCc1cc(F)c2c(c1)C(=O)N(c1cc(-c3ccc(C#N)cc3-c3nncn3C)cc(C3CC3)n1)C2` [AKW-1, 4-{2-Cyclopropyl-6-[4-fluoro-6-({[(2S)-2-methoxypropyl]amino}methyl)-1-oxo-3H-isoindol-2-yl]pyridin-4-yl}-3-(4-methyl-1,2,4-triazol-3-yl)benzonitrile], the IC50 in test [1] and in test [2] was not above 200 nM in each case.

As for `Cn1cnnc1-c1cc(C#N)ccc1-c1cc(C2CC2)nc(N2Cc3c(cc(CNCC4COC4)c(F)c3F)C2=O)c1` [ANE-1, 4-[2-Cyclopropyl-6-(4,5-difluoro-6-{[(oxetan-3-ylmethyl)amino]methyl}-1-oxo-3H-isoindol-2-yl)pyridin-4-yl]-3-(4-methyl-1,2,4-triazol-3-yl)benzonitrile], the IC50 in test [1] and in test [2] was not above 200 nM throughout.

On to `C[C@@H](NC1COC1)c1ccc2c(c1)C(=O)N(c1cc(-c3ccc(C#N)cc3-c3nncn3C)cc(C3CC3)n1)C2` [AOC-2], for which the IC50 in test [1] and in test [2] was not above 200 nM throughout.

Regarding `COCC1(NCc2ccc3c(c2)C(=O)N(c2cc(-c4ccc(C#N)cc4-c4nncn4C)cc(C4CC4)n2)C3)CC1` [ALT-2, 4-{2-Cyclopropyl-6-[6-({[1-(methoxymethyl)cyclopropyl]amino}methyl)-1-oxo-3H-isoindol-2-yl]pyridin-4-yl}-3-(4-methyl-1,2,4-triazol-3-yl)benzonitrile], the IC50 in test [1] and in test [2] was not above 200 nM in each case.

For `Cn1cnnc1-c1cc(C#N)ccc1-c1cc(C2CC2)nc(N2Cc3c(cc(CNCC4(O)CCC4)c(F)c3F)C2=O)c1` [AOX-1, 4-{2-Cyclopropyl-6-[4,5-difluoro-6-({[(1-hydroxycyclobutyl)methyl]amino}methyl)-1-oxo-3H-isoindol-2-yl]pyridin-4-yl}-3-(4-methyl-1,2,4-triazol-3-yl)benzonitrile], the IC50 in test [1] and in test [2] was not above 200 nM in each case.

Turning to `C[C@@H](NCc1ccc2c(c1)C(=O)N(c1cc(-c3ccc(C#N)cc3-c3nncn3C)cc(C3CC3)n1)C2)C1CCC1` [AOJ-2, 4-{2-[6-({[(1R)-1-Cyclobutylethyl]amino}methyl)-1-oxo-3H-isoindol-2-yl]-6-cyclopropylpyridin-4-yl}-3-(4-methyl-1,2,4-triazol-3-yl)benzonitrile], the IC50 in test [1] and in test [2] was not above 200 nM in each case.

As for `COc1cc2c(cc1CNCC1CCC1)C(=O)N(c1cc(-c3ccc(C#N)cc3-c3nncn3C)cc(C3CC3)n1)C2` [AKM-2, 4-[2-(6-{[(Cyclobutylmethyl)amino]methyl}-5-methoxy-1-oxo-3H-isoindol-2-yl)-6-cyclopropylpyridin-4-yl]-3-(4-methyl-1,2,4-triazol-3-yl)benzonitrile], the IC50 in test [1] and in test [2] was 1000 to 10000 nM in each case.

Regarding `Cn1cnnc1-c1cc(C#N)ccc1-c1cc(C2CC2)nc(N2Cc3ccc(C(C)(C)NC4CCC4)cc3C2=O)c1` [AOI-1, 4-(2-{6-[2-(Cyclobutylamino)propan-2-yl]-1-oxo-3H-isoindol-2-yl}-6-cyclopropylpyridin-4-yl)-3-(4-methyl-1,2,4-triazol-3-yl)benzonitrile], the IC50 in test [1] and in test [2] was not above 200 nM throughout.

On to `Cn1cnnc1-c1cc(C#N)ccc1-c1cc(C2CC2)nc(N2Cc3ccc(CNCC4CC(F)(F)C4)cc3C2=O)c1` [AKC-2, 4-{2-Cyclopropyl-6-[6-({[(3,3-difluorocyclobutyl)methyl]amino}methyl)-1-oxo-3H-isoindol-2-yl]pyridin-4-yl}-3-(4-methyl-1,2,4-triazol-3-yl)benzonitrile], for which the IC50 in test [1] and in test [2] was not above 200 nM in each case.

On to `Cn1cnnc1-c1cc(C#N)ccc1-c1cccc(N2Cc3ccc(CNCC4CC4)cc3C2=O)c1` [AJE-2, 3′-(6-(((Cyclopropylmethyl)amino)methyl)-1-oxoisoindolin-2-yl)-2-(4-methyl-4H-1,2,4-triazol-3-yl)-[1,1′-biphenyl]-4-carbonitrile], for which the IC50 in test [1] and in test [2] was not above 200 nM each time.

Turning to `COC[C@@H](C)NCc1cc(F)c2c(c1)C(=O)N(c1cc(-c3ccc(C#N)cc3-c3nncn3C)cc(C3CC3)c1)C2` [ALG-3, 3′-cyclopropyl-5′-[4-fluoro-6-({[(2R)-1-methoxypropan-2-yl]amino}methyl)-1-oxo-3H-isoindol-2-yl]-2-(4-methyl-1,2,4-triazol-3-yl)-[1,1′-biphenyl]-4-carbonitrile], the IC50 in test [1] and in test [2] was not above 200 nM throughout.

The IC50 is the concentration at which inhibition is half-maximal.

(Values after patent US12325697B2 (Nimbus Clio, Inc., priority 2021, dated 2025).)
